Test results as given in patent publication US20230321017A1, “ACIDIC CANNABINOIDS AND USES THEREOF FOR ENHANCING FEMALE SEXUAL FUNCTION OR TREATING FEMALE SEXUAL DISORDERS” (Vella Bioscience, Inc., priority 2022, published 2023).
“Also recorded” adds a separate entry of the source.

Key:
[1] = background statement; cited from earlier work
cyclooxygenase isoforms = conditions: background statement, selectivity controversial; cited from earlier work
[2] = test system: rat vaginal smooth muscle; assay: Relaxation of precontracted rat vaginal smooth muscle (summary statement); conditions: dose-dependent manner; tissue region not specified
From the text: (§1) The following in vitro methodology was utilized to examine the concentration-dependent response of rat vaginal tissue, both proximal and distal, to CBDA and CBD following contraction by electrical field stimulation (similar to efferent neurostimulation in vivo).
(§2) Intact female Sprague-Dawley rats were anesthetized and vagina harvested. A maximum of eight vaginal strips (4 proximal and 4 distal) were obtained from each rat in circular direction and mounted in organ chambers filled with an oxygenated physiological salt solution.
(§3) Strips were excised from the tissue samples and connected to force transducers for isometric tension recording. Organ baths were filled with Krebs buffer maintained at 37° C. and bubbled with 95% O2 and 5% CO2, pH 7.4.
After the equilibration period, the strips were primed first by the addition to the organ bath of KCI (100 mM, 10 min) and then after a washing step, by stimulation to EFS (electrical parameters: 20 Hz, 3 ms, 10 s, 300 mA). After this priming period, the strips were washed and a baseline frequency response curve (FRC) was obtained (3 ms, 10 s, 300 mA, frequency at 1, 2, 4, 8, 16, 32, and 48 Hz, every 2 minutes). Then, 6 strips (3 proximal and 3 distal) were incubated with vehicle for 10 minutes before applying a second FRC. The remaining 2 strips (one proximal and one distal) served as a time-controls. […]

[3] = pKa estimate by comparison to olivetolic acid; assay type: physicochemical; conditions: estimated by comparison to olivetolic acid; not reported
[4] = test system: rat proximal vaginal smooth muscle tissue; assay: In vitro isometric tension, isolated organ bath: relaxation of EFS-induced contractions of proximal vagina strips; conditions: for pharmacological relaxant effect on rat proximal vaginal smooth muscle tissue (dose dependence): figure legend, 1, 10 and 100 µg/mL; for relaxation of EFS-induced contractions of proximal vagina strips compared to the vehicle control: 10 min incubation, two-way ANOVA
From the text: as §1, §2, §3
(§4) After the equilibration period, the strips were primed first by the addition to the organ bath of KCI (100 mM, 10 min) and then after a washing step, by stimulation to EFS (electrical parameters: 20 Hz, 3 ms, 10 s, 300 mA). After this priming period, the strips were washed and a baseline frequency response curve (FRC) was obtained (3 ms, 10 s, 300 mA, frequency at 1, 2, 4, 8, 16, 32, and 48 Hz, every 2 minutes). Then, 6 strips (3 proximal and 3 distal) were incubated with vehicle for 10 minutes before applying a second FRC. The remaining 2 strips (one proximal and one distal) served as a time-controls. After a washing step, a third FRC was applied after the incubation of the test compound at 1 µg/mL for a period of 10 min. This was repeated with the concentration of 10 µg/mL, and 100 µg/mL.
(§5) The experiments were performed following the general procedures described in Examples 1 and 2. The data are mean ± SEM of N experiments using vaginal strips from N different rats. p = ns, * p < 0.05, ** p < 0.01, *** p < 0.001, **** p < 0.0001, two-way ANOVA.
(§6) The experiments were performed following the general procedures described in Examples 1 and 2. The data are mean ± SEM of N experiments using vaginal strips from N different rats; p = ns, * p < 0.05, ** p < 0.01, *** p < 0.001, **** p < 0.0001, two-way ANOVA.
(§7) The comparison plots of the pharmacological relaxant effects of CBD and CBDA on rat vaginal smooth muscle tissue are shown in FIGS. 3, 4, and 5. Also, shown are the results of the evaluation of the differences in effects exerted by CBD and CBDA for statistical significance. The data are mean ± SEM of N experiments using vaginal strips from N different rats; p = ns, * p < 0.05, ** p < 0.01, *** p < 0.001, **** p < 0.0001, two-way ANOVA.

[5] = test system: rat distal vaginal smooth muscle tissue; assay: In vitro isometric tension, isolated organ bath: relaxation of EFS-induced contractions of distal vagina strips; conditions: for relaxation of EFS-induced contractions of distal vagina strips compared to the vehicle control: 10 min incubation, two-way ANOVA; for pharmacological relaxant effect on rat distal vaginal smooth muscle tissue (dose dependence): figure legend, 1, 10 and 100 µg/mL
From the text: as §1, §2, §3, §4, §5, §6, §7

vaginal smooth muscle = conditions: earlier study WO2021091908A1; cited from earlier work

Compound: C=C(C)[C@@H]1CCC(C)=C[C@H]1c1c(O)cc(CCCCC)c(C(=O)O)c1O [CBDA, (1′R,2′R)-2,6-dihydroxy-5′-methyl-4-pentyl-2′-(prop-1-en-2-yl)-1′,2′,3′,4′-tetrahydro[1,1′-biphenyl]-3-carboxylic acid]
- permeability relative to CBD [1]: substantially higher
- activity against cyclooxygenase (COX-1/COX-2) (cyclooxygenase isoforms): inhibitor of cyclooxygenase isoforms
- effectiveness at relaxing a precontracted rat vaginal smooth muscle, relative to CBD [2]: significantly more effective than CBD
- pKa [3]: ~3.4
- pharmacological relaxant effect of CBDA compared with CBD, proximal vaginal smooth muscle ([4]; 1 µg/mL, FIG. 3A): stronger
- pharmacological relaxant effect of CBDA compared with CBD, proximal vaginal smooth muscle ([4]; 10 µg/mL, FIG. 4A): stronger
- pharmacological relaxant effect of CBDA compared with CBD, proximal vaginal smooth muscle ([4]; 100 µg/mL, FIG. 5A): stronger
- pharmacological relaxant effect on rat proximal vaginal smooth muscle tissue (dose dependence) [4]: statistically significant, dose-dependent pharmacological relaxant effect
- pharmacological relaxant effect of CBDA compared with CBD, distal vaginal smooth muscle ([5]; 1 µg/mL, FIG. 3B): no statistically significant difference
- relaxation of EFS-induced contractions of distal vagina strips compared to the vehicle control ([5]; 10 µg/mL): statistically-significant relaxation
- pharmacological relaxant effect of CBDA compared with CBD, distal vaginal smooth muscle ([5]; 10 µg/mL, FIG. 4B): stronger
- relaxation of EFS-induced contractions of distal vagina strips compared to the vehicle control ([5]; 100 µg/mL): statistically-significant relaxation
- pharmacological relaxant effect of CBDA compared with CBD, distal vaginal smooth muscle ([5]; 100 µg/mL, FIG. 5B): stronger
- pharmacological relaxant effect on rat distal vaginal smooth muscle tissue (dose dependence) [5]: statistically significant, dose-dependent pharmacological relaxant effect

Compound: C=C(C)[C@@H]1CCC(C)=C[C@H]1c1c(O)cc(CCCCC)cc1O [CBD, (-)-trans-cannabidiol, reference compound]
- activity against cyclooxygenase (COX-1/COX-2) (cyclooxygenase isoforms): much weaker or no activity
- relaxation of vaginal smooth muscle (vaginal smooth muscle): statistically-significant relaxation
- relaxation of EFS-induced contractions of proximal vagina strips compared to the vehicle control ([4]; 10 µg/mL): statistically-significant relaxation
- relaxation of EFS-induced contractions of proximal vagina strips compared to the vehicle control ([4]; 100 µg/mL): statistically-significant relaxation
- pharmacological relaxant effect on rat proximal vaginal smooth muscle tissue (dose dependence) [4]: statistically significant, dose-dependent pharmacological relaxant effect
- relaxation of EFS-induced contractions of distal vagina strips compared to the vehicle control ([5]; 1 µg/mL): statistically-significant relaxation; also recorded: statistically significant relaxation
- relaxation of EFS-induced contractions of distal vagina strips compared to the vehicle control ([5]; 10 µg/mL): statistically-significant relaxation; also recorded: statistically significant relaxation
- relaxation of EFS-induced contractions of distal vagina strips compared to the vehicle control ([5]; 100 µg/mL): statistically-significant relaxation; also recorded: statistically significant relaxation
- pharmacological relaxant effect on rat distal vaginal smooth muscle tissue (dose dependence) [5]: statistically significant, dose-dependent pharmacological relaxant effect
